This note sets out measurements from patent US6995187B1, “Peripheral cannabinoid receptor (CB2) selective ligands” (University of Connecticut, priority 1999, dated 2006).

The target of assay [1] is T1, CB2 receptor (Mus musculus, UniProt P47936).
T1 construct: membranes were prepared from frozen mouse spleen; from tissue; host or cells: mouse spleen
The experiment in a line: CB2 receptor binding assay ([3H] CP-55,940 displacement, mouse spleen membranes). Conditions: 0.8 nM [3H] CP-55,940, read-out: CB2 affinity. The method, then: (§1) As used herein, “binding affinity” is represented by the IC50 value which is the concentration of an analog required to occupy the 50% of the total number (Bmax) of the receptors. The lower the IC50 value, the higher the binding affinity. […] The binding affinities (Ki) are expressed in nanomoles (nM).
(§2) Membranes, previously frozen at −80° C., were thawed on ice. To the stirred suspension was added three volumes of TME (25 mM Tris-HCl buffer, 5 mM MgCl2 and 1 mM EDTA) at a pH 7.4. The suspension was incubated at 4° C. for 30 min. At the end of the incubation, the membranes were pelleted and washed three times with TME.
The treated membranes were subsequently used in the binding assay described below. Approximately 30 μg of membranes were incubated in silanized 96-well microtiter plate with TME containing 0.1% essentially fatty acid-free bovine serum albumin (BSA), 0.8 nM [^3H] […] Radioactivity was detected using MicroScint 20 scintillation cocktail added directly to the dried filterplates, and the filterplates were counted using a Packard Instruments Top-Count. Nonspecific binding was assessed using 100 nM CP-55,940. […] CP-55,940, determined using buffer and 100 nM CP-55,940. The normalized data was analyzed using a 4-parameter nonlinear logistic equation to yield IC50 values. […]

Assay [2] addresses T2, CB1 receptor (Rattus norvegicus, UniProt P20272).
T2 construct: membranes were prepared from rat forebrain membranes; from tissue; host or cells: rat forebrain
As to the kind of experiment: CB1 receptor binding assay ([3H] CP-55,940 displacement, rat forebrain membranes). The conditions noted are these: CB2 (mouse spleen) versus CB1 (rat forebrain) binding affinity. The method, then:
as §1
The above articles are incorporated by reference herein.
as §2
The treated membranes were subsequently used in the binding assay described below. Approximately 30 μg of membranes were incubated in silanized 96-well microtiter plate with TME containing 0.1% essentially fatty acid-free bovine serum albumin (BSA), 0.8 nM [^3H] […] Radioactivity was detected using MicroScint 20 scintillation cocktail added directly to the dried filterplates, and the filterplates were counted using a Packard Instruments Top-Count. Nonspecific binding was assessed using 100 nM CP-55,940. […] CP-55,940, determined using buffer and 100 nM CP-55,940. The normalized data was analyzed using a 4-parameter nonlinear logistic equation to yield IC50 values.

The subject of assay [3] is paw-withdrawal latency to radiant heat in male Sprague-Dawley rats. As to the kind of experiment: Cannabinoid mediated antinociception: paw-withdrawal latency to a thermal nociceptive stimulus (Hargreaves method). In kind it is in vivo. The conditions noted are these: rat, subcutaneous injection in plantar surface of hindpaw, in DMSO, 50 μl; FIGS. 1–13. The method, then:
Cannabinoid Mediated Antinociception.
Method. Male Sprague-Dawley rats (Harlan; Indianapolis, Ind.) 200–300 grams at time of testing, were maintained in a climate-controlled room on a 12-h light/dark cycle (lights on at 06:00 h) and food and water were available ad libitum. All of the testing was performed in accordance with the policies and recommendations of the International Association for the Study of Pain (IASP) and the National Institutes of Health (NIH) guidelines for the handling and use of laboratory animals and received approval from the Institutional Animal Care and Use Committee (IACUC) of the University of Arizona.
All drugs were dissolved in dimethyl sulfoxide (DMSO) and were injected subcutaneously in the plantar surface of the hindpaw in a total volume of 50 μl. DMSO given in hindpaw at this volume had no effect. The method of Hargreaves, K.; Dubner, R.; Brown, F.; Flores, C.; and Joris, J., A New Sensitive Method for Measuring Thermal Nociception in Cutaneous Hyperalgesia. […] Paw-withdrawal latency was determined by a photocell that halted both lamp and timer when the paw was withdrawn. The latency to withdrawal of the paw from the radiant heat source was determined both before and after drug or vehicle administration. […]

T2 sequence (P20272 whole entry): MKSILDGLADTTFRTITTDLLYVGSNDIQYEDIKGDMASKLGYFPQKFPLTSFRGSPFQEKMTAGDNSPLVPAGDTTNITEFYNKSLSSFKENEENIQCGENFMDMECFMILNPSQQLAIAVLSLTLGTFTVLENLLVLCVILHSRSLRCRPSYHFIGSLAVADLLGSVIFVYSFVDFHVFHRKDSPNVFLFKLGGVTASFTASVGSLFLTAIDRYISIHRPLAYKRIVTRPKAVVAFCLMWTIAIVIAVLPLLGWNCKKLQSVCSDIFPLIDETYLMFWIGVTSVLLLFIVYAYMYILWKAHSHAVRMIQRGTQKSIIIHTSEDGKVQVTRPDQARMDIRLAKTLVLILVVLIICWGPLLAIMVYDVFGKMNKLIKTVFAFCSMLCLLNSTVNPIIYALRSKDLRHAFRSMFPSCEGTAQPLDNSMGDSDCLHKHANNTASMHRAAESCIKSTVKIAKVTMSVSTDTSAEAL
T1 sequence (P47936 whole entry): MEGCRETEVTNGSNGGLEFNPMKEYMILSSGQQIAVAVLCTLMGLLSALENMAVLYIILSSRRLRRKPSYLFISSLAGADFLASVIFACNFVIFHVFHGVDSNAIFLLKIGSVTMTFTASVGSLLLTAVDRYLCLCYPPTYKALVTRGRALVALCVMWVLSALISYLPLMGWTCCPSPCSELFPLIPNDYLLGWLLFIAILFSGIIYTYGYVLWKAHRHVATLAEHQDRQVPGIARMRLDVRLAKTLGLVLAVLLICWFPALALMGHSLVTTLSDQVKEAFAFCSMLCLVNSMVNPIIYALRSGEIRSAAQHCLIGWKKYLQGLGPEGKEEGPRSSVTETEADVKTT

For `CCCCCCC(C)(C)c1cc(O)c2c(c1)oc(=O)c1ccc(OC)cc12` [AM1710, 3-(1,1-Dimethylheptyl)-1-hydroxy-9-methoxy-6H-dibenzo[b,d]pyran-6-one], in assay [1], the Ki came to 0.49 nM. The “CB2 selectivity over CB1” value in assay [2] is listed as ~750 fold.
For the compound `CCCCCCC(C)(C)c1cc(O)c2c(c1)oc(=O)c1ccc(O)cc12` [AM1714, 3-(1,1-Dimethylheptyl)-1,9-dihydroxy-6H-dibenzo[b,d]pyran-6-one], the “physiological effects in test animals including analgesia” value in assay [3] is on record as “produced notable physiological effects in test animals including analgesia”.
